Measured values published in ChEMBL document CHEMBL3596150, “Acylated glucosylflavones as α-glucosidase inhibitors from Tinospora crispa leaf” (Bioorg Med Chem, 2015).
Active and inactive are the calls of the source. The calls are words filed in the database; no cut-off is given here.

Key:
[1] = Retention time of the compound by HPLC-SPE-NMR analysis; assay type: physicochemical
[2] = Inhibition of Bacillus stearothermophilus alpha-glucosidase; set-up: species or system Geobacillus stearothermophilus
[3] = test system: Geobacillus stearothermophilus; assay: Inhibition of Bacillus stearothermophilus alpha-glucosidase at 10 ug/ml
[4] = Cytotoxicity against human WS1 cells; assay type: cell-based

Row | Retention_time [1] | IC50 [2] | inhibition [3] | Compound | IC50 [4]
1 | 14.9 min | 1530 µM |  | O=c1cc(-c2ccc(O)c(O)c2)oc2cc(O)c([C@@H]3O[C@H](CO)[C@@H](O)[C@H](O)[C@H]3O)c(O)c12 [ISOORIENTIN] | 
2 | 41.8 min | 8.8 µM |  | COc1cc(/C=C/C(=O)OC[C@H]2O[C@@H](Oc3cc(O)c4c(=O)cc(-c5ccc(O)cc5)oc4c3)[C@H](O)[C@@H](O)[C@@H]2O)ccc1O | 
3 | 29.9 min | 35.7 µM |  | O=C(/C=C/c1ccc(O)cc1)O[C@@H]1[C@@H](O)[C@H](O)[C@@H](CO)O[C@H]1c1c(O)cc2oc(-c3ccc(O)c(O)c3)cc(=O)c2c1O | 
4 | 29.1 min |  |  | COc1cc(/C=C/C(=O)O[C@@H]2[C@@H](O)[C@H](O)[C@@H](CO)O[C@H]2c2c(O)cc3oc(-c4ccc(O)c(O)c4)cc(=O)c3c2O)cc(OC)c1O | 
5 |  |  | inactive | O=c1cc(-c2ccc(O[C@@H]3O[C@H](CO)[C@@H](O)[C@H](O)[C@H]3O)c(O)c2)oc2cc(O)cc(O)c12 | 
6 | 44.9 min | 10.1 µM |  | O=C(/C=C\c1ccc(O)cc1)OC[C@H]1O[C@@H](Oc2cc(O)c3c(=O)cc(-c4ccc(O)cc4)oc3c2)[C@H](O)[C@@H](O)[C@@H]1O | 
7 | 36.5 min | 4.3 µM |  | O=C(/C=C/c1ccc(O)cc1)O[C@@H]1[C@@H](O)[C@H](O)[C@@H](CO)O[C@H]1c1c(O)cc2oc(-c3ccc(O)cc3)cc(=O)c2c1O | 
8 | 50.2 min | 34.6 µM |  | O=c1cc(-c2ccc(O)cc2)oc2cc(O)cc(O)c12 [APIGENIN] | 
9 | 51.4 min |  |  | O=C(/C=C/c1ccccc1)OC[C@H]1O[C@@H](Oc2cc(O)c3c(=O)cc(-c4ccc(O)c(O)c4)oc3c2)[C@H](O)[C@@H](O)[C@@H]1O | 
10 | 20.7 min |  | inactive | O=c1cc(-c2ccc(O)c(O)c2)oc2cc(O[C@@H]3O[C@H](CO)[C@@H](O)[C@H](O)[C@H]3O)cc(O)c12 [GALUTEOLIN] | 
11 | 25.7 min |  | inactive | O=c1cc(-c2ccc(O)cc2)oc2cc(O[C@@H]3O[C@H](CO)[C@@H](O)[C@H](O)[C@H]3O)cc(O)c12 [APIGETRIN] | 
12 | 57.4 min | 11.3 µM |  | O=C(/C=C\c1ccccc1)OC[C@H]1O[C@@H](Oc2cc(O)c3c(=O)cc(-c4ccc(O)cc4)oc3c2)[C@H](O)[C@@H](O)[C@@H]1O | 
13 | 51.4 min |  |  | COc1cc(-c2cc(=O)c3c(O)cc(O)cc3o2)ccc1O [CHRYSOERIOL] | 
14 | 19.5 min | 61.2 µM |  | O=c1cc(-c2ccc(O)cc2)oc2cc(O)c([C@@H]3O[C@H](CO)[C@@H](O)[C@H](O)[C@H]3O)c(O)c12 [ISOVITEXIN] | 
15 |  | 0.033 µM |  | C[C@H]1O[C@H](O[C@H]2[C@H](O)[C@@H](O)[C@@H](O[C@H]3[C@H](O)[C@@H](O)C(O)O[C@@H]3CO)O[C@@H]2CO)[C@H](O)[C@@H](O)[C@@H]1N[C@H]1C=C(CO)[C@@H](O)[C@H](O)[C@H]1O (stereo not given in full) [ACARBOSE] | 
16 | 43.4 min | 14.6 µM |  | O=C(/C=C/c1ccc(O)cc1)OC[C@H]1O[C@@H](Oc2cc(O)c3c(=O)cc(-c4ccc(O)cc4)oc3c2)[C@H](O)[C@@H](O)[C@@H]1O | 42 µM

Row | Compound | Retention_time [1] | IC50 [2] | inhibition [3] | IC50 [4]
17 | O=c1cc(-c2ccc(O)c(O)c2)oc2c([C@@H]3O[C@H](CO)[C@@H](O)[C@H](O)[C@H]3O)c(O)cc(O)c12 [ORIENTIN] | 16.6 min |  |  | 
18 | O=c1cc(-c2ccc(O)c(O)c2)oc2cc(O)cc(O)c12 [LUTEOLIN] |  | 86.1 µM |  | 
